Measured values published in paper PMC3230241 (Nature biotechnology, 2011).

Biological target: CHK2 (Homo sapiens, UniProt O96017)
Test: HotSpot radiometric kinase assay, CHK2
Assay type: biochemical
Settings: compound 0.5 μM, 10 μM ATP; Fig. 4b

Sequence of CHK2 (O96017 whole entry): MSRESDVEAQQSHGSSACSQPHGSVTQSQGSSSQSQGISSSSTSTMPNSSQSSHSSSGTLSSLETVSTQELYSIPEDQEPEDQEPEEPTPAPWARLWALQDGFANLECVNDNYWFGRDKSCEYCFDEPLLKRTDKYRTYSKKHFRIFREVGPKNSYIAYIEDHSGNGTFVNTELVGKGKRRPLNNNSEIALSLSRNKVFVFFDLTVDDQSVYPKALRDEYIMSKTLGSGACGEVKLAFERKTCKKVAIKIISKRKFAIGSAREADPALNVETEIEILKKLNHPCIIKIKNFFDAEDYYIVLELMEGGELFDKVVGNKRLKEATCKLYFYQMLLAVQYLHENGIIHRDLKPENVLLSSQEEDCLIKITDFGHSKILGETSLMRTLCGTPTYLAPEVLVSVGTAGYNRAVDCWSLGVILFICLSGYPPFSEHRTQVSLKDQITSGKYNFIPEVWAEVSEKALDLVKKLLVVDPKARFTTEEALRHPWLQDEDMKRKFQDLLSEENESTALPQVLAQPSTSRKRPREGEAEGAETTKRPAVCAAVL

COc1cc2ncnc(Nc3ccc(OCc4ccccc4)cc3)c2cc1OC [EGFR/ErbB-2 Inhibitor, 4-(4-benzyloxyanilino)-6,7-dimethoxyquinazoline]
inhibition of CHK2: potent inhibition
